From US20220125878A1, “Compositions and Methods for Preventing the Interaction Between SARS-COV-2 and L-Sign” (priority 2020, published 2022)

Experiments:
SARS-CoV-2 spike protein = biological target: T1, SARS-CoV-2 spike protein (Severe acute respiratory syndrome coronavirus 2, UniProt P0DTC2); type: binding
T1 construct: host or cells: HEK293T

human L-SIGN = biological target: T2, human L-SIGN (Homo sapiens, UniProt Q9H2X3); assay: Flow cytometry of Spike/Fc binding to L-SIGN-expressing HEK293T cells; conditions: EGTA 1 mM
T2 construct: host or cells: HEK293T
T2 sequence (Q9H2X3 1-399): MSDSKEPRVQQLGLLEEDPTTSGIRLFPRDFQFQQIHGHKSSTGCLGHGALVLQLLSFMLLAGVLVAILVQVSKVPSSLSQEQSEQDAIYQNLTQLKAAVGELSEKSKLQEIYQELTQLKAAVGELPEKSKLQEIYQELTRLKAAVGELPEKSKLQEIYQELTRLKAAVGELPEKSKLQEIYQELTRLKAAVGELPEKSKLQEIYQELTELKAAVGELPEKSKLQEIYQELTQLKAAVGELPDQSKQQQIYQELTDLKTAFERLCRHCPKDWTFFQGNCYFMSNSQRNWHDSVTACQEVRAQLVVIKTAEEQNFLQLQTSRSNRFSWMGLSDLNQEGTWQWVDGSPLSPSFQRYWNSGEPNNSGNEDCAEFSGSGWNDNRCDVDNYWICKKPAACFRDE

[1] = test system: high-mannose type N-glycans on spike protein-expressing HEK293T cells; assay: Flow cytometry of GNL lectin binding to spike protein-expressing HEK293T cells; type: cell-based; conditions: spike protein-expressing HEK293T cells treated with kifunensine 10 μM, 48 h
[2] = test system: SARS-CoV-2-type pseudo-typed virus (CoV2-type); type: cell-based
[3] = test system: VSVG-type pseudo-typed virus; type: cell-based

Compound	inhibition of L-SIGN/Fc binding to spike protein-expressing HEK293T cells (SARS-CoV-2 spike protein)	blocking of the interaction of Spike/Fc with L-SIGN (human L-SIGN)	effect of treatment on binding of spike protein to L-SIGN/Fc (SARS-CoV-2 spike protein)	effect of treatment on binding of spike protein to GNL [1]	blocking of L-SIGN-mediated CoV2-type infection (% infection efficiency) [2]	blocking of control VSVG-type infection (% infection efficiency) [3]
O=C(O)CN(CCOCCOCCN(CC(=O)O)CC(=O)O)CC(=O)O [EGTA]	inhibited	blocked	–	–	–	–
O=C1N[C@@H]2[C@@H](O)[C@@H](O)[C@H](O)[C@@H](CO)N2C1=O [Kifunensine]	–	–	enhanced	enhanced	–	–
mannan	inhibited	–	–	–	dose-dependently blocked	but not control VSVG-type infection
